Tests used:
[1] = target: cdc2/cyclinB (Homo sapiens, UniProt P06493); assay: Cyclin-Dependent Kinase Assay cdc2/cyclinB
[2] = target: cdk2/cyclinE (Homo sapiens, UniProt P24941); assay: Cyclin-Dependent Kinase Assay cdk2/cyclinE; conditions: cdk2/E IC50
[3] = target: cdk4/D (Homo sapiens, UniProt P11802); assay: Cyclin-Dependent Kinase 4 (cdk4) Assay; type: biochemical; conditions: read-out: cdk4/D IC50
Method: A typical assay, for instance, measures inhibitory activity against the cyclin D dependent kinase 4 enzyme (cdk4/D). […] The cdk4 assay was carried out as follows.
Cyclin-Dependent Kinase 4 (cdk4) Assay
All components except the ATP were added to the wells, and the plate was placed on a plate mixer for 2 minutes. The reaction was started by adding [^32P]ATP and the plate was incubated at 25° C. for 15 minutes. The reaction was terminated by addition of 0.1 mL of 20% trichloroacetic acid (TCA). The plate was kept at 4° C. for at least 1 hour to allow the substrate to precipitate. The wells were then washed five times with 0.2 mL of 10% TCA and ^32P incorporation was determined with a beta plate counter (Wallac Inc., Gaithersburg, Md.).

[4] = target: Cdk5/p25 (Homo sapiens, UniProt Q00535); assay: Cyclin-Dependent Kinase 5 High Throughput Screening (cdk5-HTS) Assay; type: biochemical; conditions: high throughput screen
Method: Cyclin-Dependent Kinase 5 High Throughput Screening (cdk5-HTS) Assay
Enzyme assays for IC50 determinations were performed in 96-Pierce Reacti-Bind™ White Opaque Glutatione Coated Plates (Cat. No. 15240B).
The total volume was 0.100 mL containing a final concentration of 50 mM TRIS (tris[hydroxymethyl]aminomethane) at pH 7.4, 50 mM NaCl, 10 mM MgCl2, 5 mM dithiothreitol, 20 μM ATP containing 16 μCi/mL of Redivue[y33P]ATP (Amersham Pharmacia Biotech Cat. No. AH9968), 1.0 μg/mL Cdk5/p25, 20 μg/mL GST-RbCOOH, and appropriate dilutions of a compound of the present invention. The reaction was started by adding[^33P]ATP, and the plate was shaken for 30 seconds, then incubated at room temperature for 30 minutes. The reaction was terminated by addition of 0.05 mL of 120 mM EDTA. The plate was kept at room temperature for 45 minutes to allow substrate to bind to the walls of the plate. The wells were then washed three times with 0.2 mL of 1×PBS. Once thoroughly dry, 0.140 mL of MicroScint™2O (Packard Bioscience Cat. No. 87-9081) cocktail was added to all wells. The incorporation of ^33P was determined with a beta plate counter (Packard Topcount).

[5] = target: cdk2/cyclinA (Homo sapiens, UniProt P24941); assay: Cyclin-Dependent Kinase Assay cdk2/cyclinA; conditions: cdk2/A IC50

Chain of cdc2/cyclinB (P06493 whole entry): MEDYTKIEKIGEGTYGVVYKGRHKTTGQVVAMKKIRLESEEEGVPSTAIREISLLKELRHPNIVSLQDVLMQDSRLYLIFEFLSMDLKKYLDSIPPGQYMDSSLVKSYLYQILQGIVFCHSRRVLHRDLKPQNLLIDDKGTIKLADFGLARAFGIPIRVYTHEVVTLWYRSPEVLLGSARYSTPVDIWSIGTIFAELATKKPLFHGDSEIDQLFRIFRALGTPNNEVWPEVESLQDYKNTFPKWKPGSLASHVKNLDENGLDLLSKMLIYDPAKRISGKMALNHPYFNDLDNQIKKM
Chain of cdc2/cyclinB (P14635 whole entry, further chain): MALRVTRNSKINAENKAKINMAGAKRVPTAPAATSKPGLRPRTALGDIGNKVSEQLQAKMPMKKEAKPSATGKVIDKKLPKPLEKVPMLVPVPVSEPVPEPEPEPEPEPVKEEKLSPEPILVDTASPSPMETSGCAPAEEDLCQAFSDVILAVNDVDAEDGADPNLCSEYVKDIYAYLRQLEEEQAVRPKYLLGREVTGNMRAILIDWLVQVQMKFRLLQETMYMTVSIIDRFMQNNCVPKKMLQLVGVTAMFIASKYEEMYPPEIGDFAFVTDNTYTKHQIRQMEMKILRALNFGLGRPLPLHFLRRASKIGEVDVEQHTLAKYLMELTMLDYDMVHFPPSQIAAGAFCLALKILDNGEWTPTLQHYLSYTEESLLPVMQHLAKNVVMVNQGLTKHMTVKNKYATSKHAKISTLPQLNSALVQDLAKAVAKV
Chain of cdk4/D (P11802 whole entry): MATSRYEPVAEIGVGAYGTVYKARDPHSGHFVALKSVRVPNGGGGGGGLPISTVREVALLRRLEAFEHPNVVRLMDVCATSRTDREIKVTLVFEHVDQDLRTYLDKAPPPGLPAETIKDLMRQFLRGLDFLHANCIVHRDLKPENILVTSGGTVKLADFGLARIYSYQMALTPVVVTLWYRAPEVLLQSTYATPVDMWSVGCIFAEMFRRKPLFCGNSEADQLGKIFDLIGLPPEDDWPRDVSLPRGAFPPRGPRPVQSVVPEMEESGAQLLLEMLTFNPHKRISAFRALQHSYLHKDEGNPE
Chain of cdk4/D (P24385 whole entry, further chain): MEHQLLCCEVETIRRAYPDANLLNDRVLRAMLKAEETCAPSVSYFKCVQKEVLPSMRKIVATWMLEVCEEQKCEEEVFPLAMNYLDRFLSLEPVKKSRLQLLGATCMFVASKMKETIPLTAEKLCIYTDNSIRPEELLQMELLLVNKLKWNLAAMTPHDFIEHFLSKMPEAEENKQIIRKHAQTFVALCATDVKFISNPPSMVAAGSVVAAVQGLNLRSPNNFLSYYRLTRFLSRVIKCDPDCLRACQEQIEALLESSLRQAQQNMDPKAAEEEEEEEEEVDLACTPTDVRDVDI

Row | SMILES | IC50 [1] | IC50 [2] | IC50 [3] | IC50 [4] | IC50 [5]
1 | CCC(C)n1c(=O)ccc2cnc(Nc3cc(C(F)(F)F)ccc3F)nc21 (stereo not drawn) [Example 466, 8-sec-Butyl-2-(2-fluoro-5-trifluoromethyl-phenylamino)-8H-pyrido[2,3-d]pyrimidin-7-one] | 1300 nM | 1400 nM | 1500 nM | 310 nM | 
2 | O=c1ccc2cnc(Nc3ccc4[nH]ncc4c3)nc2n1CC(F)(F)F [Example 594, 2-(1H-Indazol-5-ylamino)-8-(2,2,2-trifluoro-ethyl)-8H-pyrido[2,3-d]pyrimidin-7-one] | 1900 nM | 1670 nM |  | 555 nM | 
3 | CCn1c(=O)ccc2cnc(Nc3ccc(C#N)c(NC(C)=O)c3)nc21 [Example 299, N-[2-Cyano-5-(8-ethyl-7-oxo-7,8-dihydro-pyrido[2,3-d]pyrimidin-2-ylamino)-phenyl]-acetamide] | 2900 nM | 2700 nM | 1500 nM | 1000 nM | 
4 | O=c1ccc2cnc(Nc3ccc(F)c(C(F)(F)F)c3)nc2n1C1CCCC1 [Example 534, 8-Cyclopentyl-2-(4-fluoro-3-trifluoromethyl-phenylamino)-8H-pyrido[2,3-d]pyrimidin-7-one] | 190 nM |  | 340 nM | 45 nM | 340 nM
5 | CC(C)n1c(=O)ccc2cnc(Nc3cc([N+](=O)[O-])ccc3F)nc21 [Example 420, 2-(2-Fluoro-5-nitro-phenylamino)-8-isopropyl-8H-pyrido[2,3-d]pyrimidin-7-one] | 1400 nM | 1000 nM | 1000 nM | 660 nM | 
6 | CCCn1c(=O)ccc2cnc(Nc3cc(OC)cc(C(F)(F)F)c3)nc21 [Example 342, 2-(3-Methoxy-5-trifluoromethyl-phenylamino)-8-propyl-8H-pyrido[2,3-d]pyrimidin-7-one] |  | 370 nM | 2200 nM | 1400 nM | 1800 nM
7 | CC(C)n1c(=O)ccc2cnc(Nc3cc(C(F)(F)F)ccc3F)nc21 [Example 428, 2-(2-Fluoro-5-trifluoromethyl-phenylamino)-8-isopropyl-8H-pyrido[2,3-d]pyrimidin-7-one] | 2600 nM | 2400 nM | 2400 nM | 890 nM | 
8 | CCC(CC)n1c(=O)ccc2cnc(Nc3cc([N+](=O)[O-])ccc3F)nc21 [Example 504, 8-(1-Ethyl-propyl)-2-(2-fluoro-5-nitro-phenylamino)-8H-pyrido[2,3-d]pyrimidin-7-one] | 520 nM | 380 nM | 210 nM | 370 nM | 
9 | CCC(CC)n1c(=O)ccc2cnc(Nc3ccc(F)c(C)c3)nc21 [Example 503, 8-(1-Ethyl-propyl)-2-(4-fluoro-3-methyl-phenylamino)-8H-pyrido[2,3-d]pyrimidin-7-one] | 79 nM | 36 nM | 170 nM | 13 nM | 
10 | CCCn1c(=O)ccc2cnc(Nc3ccc(Cl)c(Cl)c3)nc21 [Example 350, 2-(3,4-Dichloro-phenylamino)-8-propyl-8H-pyrido[2,3-d]pyrimidin-7-one] | 3100 nM | 1200 nM |  | 230 nM | 
11 | CCCn1c(=O)ccc2cnc(Nc3ccc(OC(F)(F)F)cc3)nc21 [Example 362, 8-Propyl-2-(4-trifluoromethoxy-phenylamino)-8H-pyrido[2,3-d]pyrimidin-7-one] | 270 nM |  |  | 190 nM | 4000 nM
12 | Nc1c(Cl)cc(Nc2ncc3ccc(=O)n(C4CCCC4)c3n2)cc1Cl [Example 557, 2-(4-Amino-3,5-dichloro-phenylamino)-8-cyclopentyl-8H-pyrido[2,3-d]pyrimidin-7-one] | 73 nM |  | 120 nM | 96 nM | 130 nM
13 | O=c1ccc2cnc(Nc3ccc(C(F)(F)F)cc3)nc2n1CC1CC1 [Example 590, 8-Cyclopropylmethyl-2-(4-trifluoromethyl-phenylamino)-8H-pyrido[2,3-d]pyrimidin-7-one] | 650 nM |  | 460 nM | 160 nM | 320 nM
14 | CCCn1c(=O)ccc2cnc(Nc3cc(OC)c(OC)c(OC)c3)nc21 [Example 334, 8-Propyl-2-(3,4,5-trimethoxy-phenylamino)-8H-pyrido[2,3-d]pyrimidin-7-one] | 1300 nM | 910 nM |  | 300 nM | 
15 | O=c1ccc2cnc(Nc3cccc([N+](=O)[O-])c3)nc2n1CC(F)(F)F [Example 599, 2-(3-Nitro-phenylamino)-8-(2,2,2-trifluoro-ethyl)-8H-pyrido[2,3-d]pyrimidin-7-one] | 2350 nM | 1700 nM |  | 785 nM | 
16 | CC(C)n1c(=O)ccc2cnc(Nc3ccc(F)c(Cl)c3)nc21 [Example 419, 2-(3-Chloro-4-fluoro-phenylamino)-8-isopropyl-8H-pyrido[2,3-d]pyrimidin-7-one] | 140 nM | 120 nM | 260 nM | 33 nM | 
17 | CC(C)n1c(=O)ccc2cnc(Nc3ccc(O)c(CN4CCOCC4)c3)nc21 [Example 436, 2-(4-Hydroxy-3-morpholin-4-ylmethyl-phenylamino)-8-isopropyl-8H-pyrido[2,3-d]pyrimidin-7-one] |  | 340 nM | 1800 nM | 970 nM | 730 nM
18 | CCn1c(=O)ccc2cnc(Nc3cc([N+](=O)[O-])ccc3F)nc21 [Example 297, 8-Ethyl-2-(2-fluoro-5-nitro-phenylamino)-8H-pyrido[2,3-d]pyrimidin-7-one] | 3700 nM | 2300 nM | 3300 nM | 870 nM | 
19 | CCCCn1c(=O)ccc2cnc(Nc3cc(C(F)(F)F)ccc3F)nc21 [Example 372, 8-Butyl-2-(2-fluoro-5-trifluoromethyl-phenylamino)-8H-pyrido[2,3-d]pyrimidin-7-one] | 2400 nM | 1030 nM |  | 2270 nM | 
20 | CCCn1c(=O)ccc2cnc(Nc3cc(C(F)(F)F)ccc3F)nc21 [Example 311, 2-(2-Fluoro-5-trifluoromethyl-phenylamino)-8-propyl-8H-pyrido[2,3-d]pyrimidin-7-one] | 1760 nM | 1460 nM | 3000 nM | 1160 nM | 
21 | CCC(CC)n1c(=O)ccc2cnc(Nc3cc(F)c(NC(C)=O)c(Cl)c3)nc21 [Example 514, N-{2-Chloro4-[8-(1-ethyl-propyl)-7-oxo-7,8-dihydro-pyrido[2,3-d]pyrimidin-2-ylamino]-6-fluoro-phenyl}-acetamide] | 2000 nM | 3100 nM | 250 nM | 1100 nM | 
22 | CCCCn1c(=O)ccc2cnc(Nc3cc(Cl)cc(Cl)c3)nc21 [Example 391, 8-Butyl-2-(3,5-dichloro-phenylamino)-8H-pyrido[2,3-d]pyrimidin-7-one] | 165 nM | 65 nM | 515 nM | 58 nM | 
23 | COc1ccc(Nc2ncc3ccc(=O)n(C)c3n2)cc1OC [Example 617, 2-(3,4-Dimethoxy-phenylamino)-8-methyl-8H-pyrido[2,3-d]pyrimidin-7-one] | 1700 nM | 2900 nM |  | 595 nM | 
24 | CCn1c(=O)ccc2cnc(Nc3ccc(C#N)c(C#N)c3)nc21 [Example 298, 4-(8-Ethyl-7-oxo-7,8-dihydro-pyrido[2,3-d]pyrimidin-2-ylamino)-phthalonitrile] | 1900 nM | 1400 nM | 2000 nM | 430 nM | 
25 | CCCn1c(=O)ccc2cnc(Nc3cc(C(F)(F)F)cc(C(F)(F)F)c3)nc21 [Example 315, 2-(3,5-Bis-trifluoromethyl-phenylamino)-8-propyl-8H-pyrido[2,3-d]pyrimidin-7-one] | 2190 nM | 2580 nM |  | 2440 nM | 
26 | O=c1ccc2cnc(Nc3ccc(OC(F)(F)F)cc3)nc2n1CC1CC1 [Example 591, 8-Cyclopropylmethyl-2-(4-trifluoromethoxy-phenylamino)-8H-pyrido[2,3-d]pyrimidin-7-one] | 3900 nM | 1800 nM | 210 nM | 140 nM | 
27 | CCn1c(=O)ccc2cnc(Nc3cc(OC)c(OC)c(OC)c3)nc21 [Example 292, 8-Ethyl-2-(3,4,5-trimethoxy-phenylamino)-8H-pyrido[2,3-d]pyrimidin-7-one] | 860 nM | 1200 nM |  | 610 nM | 

Source: patent US20040224958A1, “Pyridopyrimidinone derivatives for treatment of neurodegenerative disease” (priority 2000, published 2004)
